Source: patent US20120258127A1 (priority 2010, published 2012)
Like-named read-outs stand apart in the source and are kept apart here.

Assays:
[1] = test system: CSFV reference strain Alfort 187; type: cell-based, porcine
CSFV isolate = test system: CSFV isolate; design: species or system pigs; conditions: pig, in vivo
[2] = test system: PBMC from vaccinated and challenged pigs; type: cell-based

## N[C@H](Cc1c[nH]c2ccccc12)C(=O)O [D-tryptophan]
[1]
  Effect on IFN-γ mediated reduction in the proportion of CSFV infected cells: unaffected

## N[C@@H](Cc1c[nH]c2ccccc12)C(=O)O [L-tryptophan]
[1]
  Effect on IFN-γ mediated reduction in the proportion of CSFV infected cells: unaffected

## IFN-α
[1]
  Proportion of infected cells: eliminated the infection

## L-N-6-(1-iminoethyl)lysine hydrochloride
[1]; after 48 hours
  Effect on IFN-γ mediated reduction in the proportion of CSFV infected cells: unaffected

## LRAAMVEYSYIFLDEY [SEQ ID NO:2]
CSFV isolate
  Occurrence of symptoms of CSFV infection compared with control group: reduced occurrence of symptoms of CSFV infection
[2]
  Recognition of individual antigenic peptides (IFN-γ): recognition

## NIMARTDHPEPIQLAY [SEQ ID NO:3]
CSFV isolate
  Occurrence of symptoms of CSFV infection compared with control group: reduced occurrence of symptoms of CSFV infection
[2]
  Recognition of individual antigenic peptides (IFN-γ): recognition

## NKYFEPRDSYFQQYML [SEQ ID NO:1]
CSFV isolate
  Occurrence of symptoms of CSFV infection compared with control group: reduced occurrence of symptoms of CSFV infection
